target: T1, Human neutrophil elastase (Homo sapiens, UniProt P08246); experiment: Human Neutrophil Elastase Assay; format: biochemical; conditions: Neutrophil Elastase assay; substrate MeOSuc-Ala-Ala-Pro-Val-AMC 250 μM; 15 min preincubation, 60 min incubation at room temperature; pH 7.5
T1 construct: purchased Calbiochem 324681
T1 sequence (P08246 30-267): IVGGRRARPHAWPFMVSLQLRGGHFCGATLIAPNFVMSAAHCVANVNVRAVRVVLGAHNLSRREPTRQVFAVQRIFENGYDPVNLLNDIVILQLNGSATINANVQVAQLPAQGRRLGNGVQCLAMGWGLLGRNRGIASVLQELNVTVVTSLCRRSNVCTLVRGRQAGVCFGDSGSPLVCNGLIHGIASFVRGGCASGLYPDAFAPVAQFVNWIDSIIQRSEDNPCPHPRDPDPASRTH
Summary of the method: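 Run in 100 mM Tris, 500 mM NaCl, pH 7.5 with 0.01% BSA, with compounds prediluted in DMSO then buffer (5% DMSO final). Fluorescence was read at 380 nm excitation/460 nm emission after enzyme inactivation. Values were normalised to inactivated-enzyme (0%) and uninhibited-enzyme (100%) controls.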

Structure (SMILES) | IC50
Cc1c(-c2cccc(C(F)(F)F)c2)c(=O)c(C(=O)NC2CCOC2)cn1C(C)c1ccc(C#N)cn1 (stereo not drawn) [Example 47.9] | 67.2 nM
Cc1c(-c2cccc(C(F)(F)F)c2)c(=O)c(C(=O)NC2CCOCC2)cn1C(C)c1ccc(C#N)cn1 (stereo not drawn) [Example 47.10] | 19.2 nM
Cc1c(-c2cccc(C(F)(F)F)c2)c(=O)c(C(=O)NCC(C)(C)O)cn1C(C)c1ccc(C#N)cn1 (stereo not drawn) [Example 47.11] | 63.5 nM
Cc1c(-c2cccc(C(F)(F)F)c2)c(=O)c(C(=O)NC2CCN(C)C2=O)cn1C(C)c1ccc(C#N)cn1 (stereo not drawn) [Example 47.12] | 7.3 nM
Cc1c(-c2cccc(C(F)(F)F)c2)c(=O)c(C(=O)NCc2ccc(S(C)(=O)=O)cc2)cn1C(C)c1ccc(C#N)cn1 (stereo not drawn) [Example 47.13] | < 1 nM
Cc1c(-c2cccc(C(F)(F)F)c2)c(=O)c(C(=O)NC(C)C#N)cn1C(C)c1ccc(C#N)cn1 (stereo not drawn) [Example 47.16] | 6.2 nM
Cc1c(-c2cccc(C(F)(F)F)c2)c(=O)c(C(=O)NC2(C#N)CC2)cn1C(C)c1ccc(C#N)cn1 (stereo not drawn) [Example 47.18] | 6.4 nM
Cc1c(-c2cccc(C(F)(F)F)c2)c(=O)c(C(=O)NCC(F)F)cn1C(C)c1ccc(C#N)cn1 (stereo not drawn) [Example 47.19] | 10.3 nM
Cc1c(-c2cccc(C(F)(F)F)c2)c(=O)c(C(=O)NCC#N)cn1C(C)c1ccc(C#N)cn1 (stereo not drawn) [Example 47.20] | 2.5 nM

Source: patent USRE46630E1, “Substituted 4-pyridones and their use as inhibitors of neutrophil elastase activity” (Boehringer Ingelheim International GmbH, priority 2012, dated 2017)
